Data: paper PMC3701070 (PLoS ONE, 2013)
Like-named read-outs stand apart in the source and are kept apart here.

Assays:
ALK5 = ALK5 (Homo sapiens, UniProt P36897); assay: ALK5 cell-based assay
A375P cells [1] = assay: Cell cycle analysis; assay type: cell-based, human; conditions: A375P (BRAF^V600E), 72-hour exposure
Experimental: (§1) Cells were permeabilized, DNA was stained with propidium iodide, and samples were read on a BD LSRII flow cytometer. Data were analyzed using the cell cycle platform of FlowJo v6.1.1 software.
(§2) Cell cycle phases are shown in stacked format as a percentage of the total population. […] (PPTX) Click here for additional data file.

SK-MEL-28 cells [2] = assay: Cell cycle analysis; assay type: cell-based, human; conditions: SK-MEL-28 (BRAF^V600E), 72-hour exposure
Experimental: as §1, §2

LIMK1 (h) = biological target: T1, LIMK1 (h) (Homo sapiens, UniProt P53667); assay: Kinase panel (Millipore) enzyme activity; assay type: biochemical
T1 construct: purchased Millipore
T1 sequence (P53667 whole entry): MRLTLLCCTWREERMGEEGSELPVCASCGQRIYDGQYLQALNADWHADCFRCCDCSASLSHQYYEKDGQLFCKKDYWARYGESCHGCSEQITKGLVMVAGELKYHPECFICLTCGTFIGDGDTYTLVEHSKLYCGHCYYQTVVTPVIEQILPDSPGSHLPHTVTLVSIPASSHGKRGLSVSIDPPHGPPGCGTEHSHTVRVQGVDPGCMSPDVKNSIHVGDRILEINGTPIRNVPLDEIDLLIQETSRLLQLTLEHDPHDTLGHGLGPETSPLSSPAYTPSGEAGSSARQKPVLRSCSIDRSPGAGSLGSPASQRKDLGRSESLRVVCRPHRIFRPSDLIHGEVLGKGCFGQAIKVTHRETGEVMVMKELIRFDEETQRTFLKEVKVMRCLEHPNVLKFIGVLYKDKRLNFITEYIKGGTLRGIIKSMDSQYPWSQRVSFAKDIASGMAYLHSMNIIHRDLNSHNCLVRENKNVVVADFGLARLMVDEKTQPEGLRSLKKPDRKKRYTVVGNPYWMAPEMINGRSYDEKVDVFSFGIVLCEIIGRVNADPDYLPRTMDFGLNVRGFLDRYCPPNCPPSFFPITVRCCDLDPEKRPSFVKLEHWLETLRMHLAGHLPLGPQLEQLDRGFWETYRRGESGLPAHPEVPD
From the text: (§3) (PDF) Click here for additional data file.

HCT-116 = assay: Cell growth assay; assay type: cell-based, human; conditions: HCT-116, RAF WT, KRAS(G13D), 3-day
Experimental: (§4) Growth was measured with CellTiter-Glo® (Promega) reagent per the manufacturer’s protocol, using a PerkinElmer EnVision™ reader at t = 0 and 72 h. IC50 values for cell growth inhibition (gIC50) were determined.
as §3

[3] = Pharmacokinetic analysis in tumor-bearing mice; conditions: 30 mg/kg oral once daily, blood
Experimental: Compound concentrations were determined from flash-frozen hemolyzed blood samples (blood:water ratio of 1∶1) or tumor homogenates (tumor:water ratio of 1∶4) by HPLC/MS-MS analysis.

A375 = assay: Cell growth assay; assay type: cell-based; conditions: Homo sapiens, A-375, 72 h; A375, BRAF(V600E), RAS WT, 3-day; read-out: gIC50
Experimental: as §4, §3
Supplementary file pone.0067583.s006.pdf: Table S3 Enzymatic and cellular activity of tool inhibitors used in the rat skin lesion formation study. Activity of GSK2366297A (BRAF tool inhibitor) and GSK2091975 (MEK tool inhibitor, active form of prodrug GSK2091976) were measured against their respective enzyme targets as described in the Materials and Methods section. Cellular activity was determined for each by inhibition of ERK phosphorylation in SK-MEL-28 cells and growth of A375 cells, both of which express BRAF^V600E. (PDF) Click here for additional data file.

BRAF [4] = biological target: T2, BRAF (Rattus norvegicus, UniProt A0A8I6AFV6); assay: BRAF/CRAF-activated MEK ATPase coupled assay; assay type: biochemical; conditions: Enzyme BRAF
T2 construct: Full-length BRAF genes were tagged with 6×His-SBP; 6xHis-SBP; made in house; host or cells: HEK293F
T2 sequence (A0A8I6AFV6 1-804): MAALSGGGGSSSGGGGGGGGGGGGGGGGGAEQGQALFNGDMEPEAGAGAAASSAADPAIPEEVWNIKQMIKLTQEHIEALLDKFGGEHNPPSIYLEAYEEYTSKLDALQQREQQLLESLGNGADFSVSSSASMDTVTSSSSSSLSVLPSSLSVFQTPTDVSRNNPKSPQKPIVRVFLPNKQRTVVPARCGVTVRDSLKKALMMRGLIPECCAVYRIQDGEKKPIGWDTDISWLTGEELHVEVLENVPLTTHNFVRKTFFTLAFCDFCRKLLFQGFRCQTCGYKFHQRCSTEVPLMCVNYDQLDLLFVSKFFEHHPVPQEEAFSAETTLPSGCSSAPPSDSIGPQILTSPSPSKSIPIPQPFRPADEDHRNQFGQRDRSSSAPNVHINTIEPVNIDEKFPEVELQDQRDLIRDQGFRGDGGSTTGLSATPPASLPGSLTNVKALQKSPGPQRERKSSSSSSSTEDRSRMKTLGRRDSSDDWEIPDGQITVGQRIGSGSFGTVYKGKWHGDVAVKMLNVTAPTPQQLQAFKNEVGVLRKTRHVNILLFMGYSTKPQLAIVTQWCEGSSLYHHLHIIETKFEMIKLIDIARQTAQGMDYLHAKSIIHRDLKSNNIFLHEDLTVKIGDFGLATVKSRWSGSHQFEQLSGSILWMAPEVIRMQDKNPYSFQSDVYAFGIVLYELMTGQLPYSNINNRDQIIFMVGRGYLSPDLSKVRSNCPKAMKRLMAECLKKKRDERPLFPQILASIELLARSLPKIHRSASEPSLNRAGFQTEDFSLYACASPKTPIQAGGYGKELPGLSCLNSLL
Experimental: (§5) Various BRAF orthologs (human, cynomolgus monkey, dog, rat) were cloned in-house. […] Full-length BRAF genes were tagged with 6×His-SBP and transiently transfected in a HEK293F expression system (Invitrogen K9000-01 protocol). Transfected cells were incubated at 37°C, 5% CO2 on a shaker at 80 r.p.m. for 48 h and harvested by centrifugation. BRAF proteins were purified by UltraLink®-immobilized Streptavidin affinity and Superdex™ 200 size exclusion chromatography.
(§6) N-terminal GST-tagged MEK1 was expressed in BL21[DE3]/pRR692 cells and purified by Glutathione Sepharose™ 4FF and Q-Sepharose™ chromatography. The GST tag was cleaved with TEV protease and MEK1 was purified on a Superdex™ 200 column.

BRAF [5] = biological target: BRAF (Macaca fascicularis, UniProt A0A7N9IA21); assay: BRAF/CRAF-activated MEK ATPase coupled assay; assay type: biochemical; conditions: Enzyme BRAF, Cyno
Chain of BRAF (Macaca fascicularis, UniProt A0A7N9IA21) (A0A7N9IA21 entry or part of it): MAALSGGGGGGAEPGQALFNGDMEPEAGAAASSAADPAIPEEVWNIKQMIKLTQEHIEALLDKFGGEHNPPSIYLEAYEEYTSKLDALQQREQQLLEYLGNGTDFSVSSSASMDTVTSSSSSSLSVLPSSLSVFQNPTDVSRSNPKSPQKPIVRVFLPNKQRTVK
Experimental: as §5, §6

BRAF [6] = biological target: T3, BRAF (Canis lupus familiaris, UniProt A0A8I3SCX1); assay: BRAF/CRAF-activated MEK ATPase coupled assay; assay type: biochemical; conditions: Enzyme BRAF, Dog
T3 construct: Full-length BRAF genes were tagged with 6×His-SBP; 6xHis-SBP; made in house; host or cells: HEK293F
T3 sequence (A0A8I3SCX1 1-803): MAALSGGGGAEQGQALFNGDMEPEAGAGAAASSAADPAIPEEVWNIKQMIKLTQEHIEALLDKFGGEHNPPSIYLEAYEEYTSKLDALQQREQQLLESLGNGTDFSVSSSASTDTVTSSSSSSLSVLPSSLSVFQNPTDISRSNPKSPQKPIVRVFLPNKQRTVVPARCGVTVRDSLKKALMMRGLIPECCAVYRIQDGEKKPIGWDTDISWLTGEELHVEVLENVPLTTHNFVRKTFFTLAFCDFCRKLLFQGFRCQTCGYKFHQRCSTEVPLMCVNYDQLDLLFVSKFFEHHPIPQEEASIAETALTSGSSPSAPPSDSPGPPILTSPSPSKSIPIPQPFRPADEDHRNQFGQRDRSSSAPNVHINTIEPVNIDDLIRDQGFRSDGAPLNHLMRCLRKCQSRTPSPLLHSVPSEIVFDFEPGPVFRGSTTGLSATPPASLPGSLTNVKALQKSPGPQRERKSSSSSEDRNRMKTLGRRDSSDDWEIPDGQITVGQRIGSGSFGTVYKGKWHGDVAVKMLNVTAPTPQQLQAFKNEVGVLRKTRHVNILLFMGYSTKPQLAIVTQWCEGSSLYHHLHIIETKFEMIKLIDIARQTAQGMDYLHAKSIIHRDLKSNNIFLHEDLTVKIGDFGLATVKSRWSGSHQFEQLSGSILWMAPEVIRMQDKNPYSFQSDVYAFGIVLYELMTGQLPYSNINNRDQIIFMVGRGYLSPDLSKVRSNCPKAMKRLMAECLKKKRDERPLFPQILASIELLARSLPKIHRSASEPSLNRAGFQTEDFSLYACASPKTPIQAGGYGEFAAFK
Experimental: as §5, §6

NEK11 (h) = biological target: T4, NEK11 (h) (Homo sapiens, UniProt Q8NG66); assay: Kinase panel (Millipore) enzyme activity; assay type: biochemical
T4 construct: purchased Millipore
T4 sequence (Q8NG66 whole entry): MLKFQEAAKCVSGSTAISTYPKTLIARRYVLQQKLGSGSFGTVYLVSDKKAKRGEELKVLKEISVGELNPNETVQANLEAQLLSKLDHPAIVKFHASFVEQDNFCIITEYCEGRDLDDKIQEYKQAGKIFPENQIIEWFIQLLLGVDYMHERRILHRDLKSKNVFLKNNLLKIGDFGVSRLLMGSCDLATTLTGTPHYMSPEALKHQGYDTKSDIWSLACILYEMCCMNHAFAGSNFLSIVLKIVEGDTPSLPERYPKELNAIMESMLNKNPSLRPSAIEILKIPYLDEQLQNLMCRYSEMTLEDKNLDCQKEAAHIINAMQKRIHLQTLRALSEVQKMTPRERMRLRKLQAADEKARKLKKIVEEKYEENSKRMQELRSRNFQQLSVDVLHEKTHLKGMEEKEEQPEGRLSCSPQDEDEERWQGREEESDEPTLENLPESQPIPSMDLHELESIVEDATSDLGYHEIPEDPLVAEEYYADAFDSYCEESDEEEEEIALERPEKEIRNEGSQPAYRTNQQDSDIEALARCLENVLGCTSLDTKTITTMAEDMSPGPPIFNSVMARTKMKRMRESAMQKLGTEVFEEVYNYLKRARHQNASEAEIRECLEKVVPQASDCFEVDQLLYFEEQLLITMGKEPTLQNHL

SIK (h) = biological target: T5, SIK (h) (Homo sapiens, UniProt P57059); assay: Kinase panel (Millipore) enzyme activity; assay type: biochemical
T5 construct: purchased Millipore
T5 sequence (P57059 whole entry): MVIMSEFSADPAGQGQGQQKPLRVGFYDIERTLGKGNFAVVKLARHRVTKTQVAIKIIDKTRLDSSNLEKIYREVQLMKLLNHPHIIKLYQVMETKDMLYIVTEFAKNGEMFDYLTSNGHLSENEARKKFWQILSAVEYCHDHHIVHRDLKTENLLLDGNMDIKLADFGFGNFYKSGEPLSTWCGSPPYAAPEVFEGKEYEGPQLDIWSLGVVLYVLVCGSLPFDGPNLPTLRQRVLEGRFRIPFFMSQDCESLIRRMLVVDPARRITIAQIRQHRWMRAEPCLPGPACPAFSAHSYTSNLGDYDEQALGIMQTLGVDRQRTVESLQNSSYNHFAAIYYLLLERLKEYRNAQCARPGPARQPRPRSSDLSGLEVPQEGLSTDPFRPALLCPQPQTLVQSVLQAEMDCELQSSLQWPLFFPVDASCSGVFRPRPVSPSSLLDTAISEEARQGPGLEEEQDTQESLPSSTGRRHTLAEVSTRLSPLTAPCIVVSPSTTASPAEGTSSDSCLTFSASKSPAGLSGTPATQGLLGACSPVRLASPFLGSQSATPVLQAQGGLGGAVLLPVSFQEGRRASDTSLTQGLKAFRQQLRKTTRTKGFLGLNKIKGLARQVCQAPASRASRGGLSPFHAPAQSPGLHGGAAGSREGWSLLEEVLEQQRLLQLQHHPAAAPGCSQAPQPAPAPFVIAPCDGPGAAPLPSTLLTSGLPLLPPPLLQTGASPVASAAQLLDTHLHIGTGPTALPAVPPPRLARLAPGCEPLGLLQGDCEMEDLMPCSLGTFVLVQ

A375P tumor xenograft = conditions: groups of 8 mice, cited from earlier work
[7] = test system: pERK in A375P (BRAF^V600E) cells; assay: Western blot, pERK in A375P cells; assay type: cell-based; conditions: Homo sapiens, 8 nM, 1 h
Experimental: (§7) Cells were lysed in 25 mM Tris-HCl pH 7.5, 2 mM EDTA, 2 mM EGTA, 1% Triton X-100, 0.1% SDS, 50 mM sodium-β-glycerophosphate, 2 mM Na3VO4, 12.5 mM sodium pyrophosphate, 2× Complete EDTA-free mini protease inhibitor tablets (Roche), 2× phosphatase inhibitor cocktails I and II (Sigma-Aldrich). Protein concentrations were determined by Bio-Rad DC™ or dye-based protein assays and lysates were resolved by SDS-PAGE (Invitrogen NuPAGE®) and transferred to PVDF membranes. Membranes were blocked with Odyssey® (LI-COR Biosciences) blocking buffer and incubated with primary antibodies overnight at 4°C. Blots were washed with PBS containing 0.1% Tween-20, incubated with secondary antibodies, and washed again prior to signal detection on a LI-COR Odyssey® reader.
siRNA complexes were prepared per the manufacturer's instructions using Dharmacon RNAi duplex (Thermo Fisher Scientific), Lipofectamine™ RNAiMAX™ (Invitrogen), and Opti-MEM® (Gibco) and allowed to form at room temperature for at least 40 min. Volumes of 1 mL of RNAi complex were added to each well of a plate with 150 000 cells in complete medium (no antibiotic) and incubated at 37°C, 5% CO2 for the indicated times.
Lysates were immunoblotted for the proteins indicated.

BRK (h) = biological target: T6, BRK (h) (Homo sapiens, UniProt Q13882); assay: Kinase panel (Millipore) enzyme activity; assay type: biochemical
T6 construct: purchased Millipore
T6 sequence (Q13882 whole entry): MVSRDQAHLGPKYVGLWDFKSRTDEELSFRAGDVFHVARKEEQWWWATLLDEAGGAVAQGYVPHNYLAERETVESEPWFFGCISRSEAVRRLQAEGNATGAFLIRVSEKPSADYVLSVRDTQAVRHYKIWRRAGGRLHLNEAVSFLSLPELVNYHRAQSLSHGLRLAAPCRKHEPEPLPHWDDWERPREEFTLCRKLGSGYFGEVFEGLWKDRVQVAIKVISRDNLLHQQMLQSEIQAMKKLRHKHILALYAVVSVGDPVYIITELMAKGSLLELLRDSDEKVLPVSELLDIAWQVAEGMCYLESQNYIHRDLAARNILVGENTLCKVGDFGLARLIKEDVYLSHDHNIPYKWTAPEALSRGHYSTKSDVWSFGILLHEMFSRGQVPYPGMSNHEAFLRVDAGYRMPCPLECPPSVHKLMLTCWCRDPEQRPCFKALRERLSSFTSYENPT

A375P cells [8] = assay: Caspase-3/7 activation; assay type: cell-based, human; conditions: A375P (BRAF^V600E)
Experimental: (§8) At selected times, caspase-3/7 activity and cell density were determined using Caspase-Glo® (Promega) and CellTiter-Glo® reagents, respectively, using a PerkinElmer EnVision™ reader. Caspase activity was normalized to cell density and percent induction over the DMSO control was determined.
as §2

SK-MEL-28 cells [9] = assay: Caspase-3/7 activation; assay type: cell-based, human; conditions: SK-MEL-28 (BRAF^V600E)
Experimental: as §8, §2

[10] = test system: phospho-MEK1/2 (pMEK) in ES-2 ovarian carcinoma (BRAF^V600E) cells; assay: Western blot, pMEK in ES-2 cells; assay type: cell-based; conditions: Homo sapiens; ES-2 cells (BRAF^V600E), 1 h, immunoblot; read-out: IC50 for pMEK inhibition
Experimental: as §7
Signals were quantified and used to determine IC50 values. (PPTX) Click here for additional data file.

Chain of ALK5 (P36897 34-503, species assumed): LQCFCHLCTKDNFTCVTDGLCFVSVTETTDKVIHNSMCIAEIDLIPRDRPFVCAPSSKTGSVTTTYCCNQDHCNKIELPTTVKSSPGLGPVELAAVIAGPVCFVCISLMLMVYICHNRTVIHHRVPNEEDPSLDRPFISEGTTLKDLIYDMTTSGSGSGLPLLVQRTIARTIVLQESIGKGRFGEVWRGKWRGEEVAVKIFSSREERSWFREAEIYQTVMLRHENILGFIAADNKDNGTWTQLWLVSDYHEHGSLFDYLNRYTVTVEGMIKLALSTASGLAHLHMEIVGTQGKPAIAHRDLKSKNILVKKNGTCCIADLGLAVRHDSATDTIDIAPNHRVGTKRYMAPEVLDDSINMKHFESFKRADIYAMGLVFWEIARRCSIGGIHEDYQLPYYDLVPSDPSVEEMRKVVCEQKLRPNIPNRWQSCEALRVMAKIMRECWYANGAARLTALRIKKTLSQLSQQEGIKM

## CC(C)(C)c1nc(-c2cccc(NS(=O)(=O)c3c(F)cccc3F)c2F)c(-c2ccnc(N)n2)s1 [dabrafenib]
ALK5
  ALK5 inhibition in cell-based assay: absence of ALK5 inhibition
A375P cells [1]
  effect on cell cycle: arrested the BRAF^V600E cells at the G1 (2n DNA) phase of the cell cycle
SK-MEL-28 cells [2]
  effect on cell cycle: arrested the BRAF^V600E cells at the G1 (2n DNA) phase of the cell cycle
LIMK1 (h)
  IC50: 15 nM
HCT-116
  gIC50: insensitive
HCT-116; Homo sapiens, 72 h, read-out: gIC50
  IC50: > 10000 nM
[3]
  oral bioavailability: orally bioavailable
A375
  IC50: 4 nM
BRAF [4]
  IC50: 4 nM
BRAF [5]; read-out: IC50
  IC50: 4 nM
BRAF [5]; read-out: pIC50 +/- std. dev. (converted)
  IC50: 3.98 nM
BRAF [6]
  IC50: 4 nM
NEK11 (h)
  IC50: 20 nM
SIK (h)
  IC50: 27 nM
A375P tumor xenograft; 10 mg/kg
  complete regressions: 1
  partial regressions: 2
A375P tumor xenograft; 100 mg/kg
  complete regressions: 4
  partial regressions: 2
[7]
  inhibition at 0.008 µM: > 90%
BRK (h)
  IC50: 79 nM
A375P cells [8]
  caspase-3/7 activation and apoptosis: induced caspase-3/7 activation and apoptosis
SK-MEL-28 cells [9]
  caspase-3/7 activation and apoptosis: induced caspase-3/7 activation and apoptosis
[10]
  IC50: 6 nM
